One may read the melting point as the temperature, or range, at which the solid turns liquid.

`CON=C(C(C)=NN=Cc1ccccc1C(=NOC)C(=O)OC)c1ccc(Cl)cc1`: the melting point lay within 118 to 119 °C.

The record behind these values is patent US6372787B1 (dated 2002).
